Measurements: patent US20250214982A1, “COMPOUNDS USABLE AS MODULATORS OF PERK ACTIVITY” (Ramot at Tel-Aviv University Ltd., priority 2022, published 2025)
In brackets after ≈: the same amount, converted by molar mass.

Legend:
STHdhQ111/111 cells = experiment: ER stress (tunicamycin)-induced apoptosis in STHdhQ111/111 cells; assay type: cell-based, murine; settings: 10 μM compound, tunicamycin 48 hours, read from FIG. 2
Method: FIG. 2 presents comparative plots showing the apoptosis rate of STHdh^Q111/111 cells as a function of concentration of the exemplary compounds GLB11 and GLC19, following incubation with tunicamycin for 48 hours), as described for FIG. 1. P values *<0.05, **<0.01, ***<0.001. The asterisks indicate the significance compared to untreated cells.
Cell culture and transfections: Mouse embryonic fibroblasts (MEF) cells were grown as described in the art. Murine striatal cell line expressing full-length polyQ-expanded Htt (STHdhQ111/111) cells were grown as described in Leitman et al. [PLOS One 2014, 9 (3): e90803]. HEK 293 and VERO cells were grown in DMEM supplemented with 10% bovine calf serum at 37° C. under 5% CO2.
Apoptosis: Apoptosis was measured by cell cycle progression using propidium iodide (PI), considering the fraction beneath G0/G1.
Statistical analysis: Generally, the results are expressed as mean±standard deviation of 3 independent experiments. Apoptosis in the presence of tunicamycin and in the absence of other compounds was normalized to 100 to allow comparison between experiments. Significance by Two-tailed Student's t-test.
In order to assess the effect of the exemplary compounds on apoptosis, similar assays were performed in mouse embryonic fibroblasts (MEF; FIG. 1) and in STHdhQ111/111 cells (FIG. 2).

Solubility = assay type: physicochemical; settings: for solubility compared to MK-28 (fold higher): relative to MK-28
Method: (§1) The solubility and lipophilicity of GLB7 and GLB11, two exemplary compounds according to some embodiments of the present invention, were measured compared to the PERK activator MK-28.

Lipophilicity (logD7.4) = assay type: physicochemical
Method: as §1

PERK = target: T1, PERK (Homo sapiens, UniProt Q9NZJ5); experiment: PERK activation: eIF2α phosphorylation relative to total eIF2α in HEK293 cells (Western blot); assay type: cell-based; settings: for increase in eIF2α phosphorylation relative to total eIF2α: 24 hours
T1 construct: endogenous in cells; host or cells: HEK293
T1 sequence (Q9NZJ5 30-1116): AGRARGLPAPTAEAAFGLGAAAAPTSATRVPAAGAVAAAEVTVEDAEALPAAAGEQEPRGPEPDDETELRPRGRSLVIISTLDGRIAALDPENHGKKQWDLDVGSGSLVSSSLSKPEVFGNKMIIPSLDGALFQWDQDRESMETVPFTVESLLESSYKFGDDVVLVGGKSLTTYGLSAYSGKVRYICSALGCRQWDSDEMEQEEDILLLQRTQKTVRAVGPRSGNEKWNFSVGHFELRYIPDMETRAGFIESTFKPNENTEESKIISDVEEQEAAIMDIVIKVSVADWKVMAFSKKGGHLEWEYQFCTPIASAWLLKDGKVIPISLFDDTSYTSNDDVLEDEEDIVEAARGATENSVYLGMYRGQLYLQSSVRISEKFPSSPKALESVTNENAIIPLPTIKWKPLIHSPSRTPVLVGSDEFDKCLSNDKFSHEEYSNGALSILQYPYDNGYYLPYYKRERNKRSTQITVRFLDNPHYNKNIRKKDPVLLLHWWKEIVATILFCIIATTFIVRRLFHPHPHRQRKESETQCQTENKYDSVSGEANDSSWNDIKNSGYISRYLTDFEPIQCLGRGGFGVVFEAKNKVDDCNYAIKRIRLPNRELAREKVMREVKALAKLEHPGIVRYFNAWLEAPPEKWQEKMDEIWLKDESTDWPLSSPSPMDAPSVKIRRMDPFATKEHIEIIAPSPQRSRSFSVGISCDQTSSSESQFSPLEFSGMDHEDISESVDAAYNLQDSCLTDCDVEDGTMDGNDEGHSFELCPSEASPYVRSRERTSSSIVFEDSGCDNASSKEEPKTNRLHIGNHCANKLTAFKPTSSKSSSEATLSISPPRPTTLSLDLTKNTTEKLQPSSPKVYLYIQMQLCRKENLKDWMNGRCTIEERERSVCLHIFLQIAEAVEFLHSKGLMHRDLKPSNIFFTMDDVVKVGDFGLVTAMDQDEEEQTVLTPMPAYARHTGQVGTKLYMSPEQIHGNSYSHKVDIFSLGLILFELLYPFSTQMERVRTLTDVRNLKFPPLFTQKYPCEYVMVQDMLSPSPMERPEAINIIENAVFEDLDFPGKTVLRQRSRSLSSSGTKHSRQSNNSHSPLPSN
Method: FIG. 3A presents comparative bar graphs showing the effect of treatment with MK-28 or GLB7 (5 μM, 10 μM or 20 μM, as indicated), on the levels of eIF2α-phosphorylation (eIF2α-P) relatively to total eIF2α (eIF2α) in lysed HEK293 cells. Treatment with MK-28 began 24 hours before lysis. Data was obtained from quantification of Western blots (FIG. 3B), and immunoblotting was performed with anti-eIF2α-P or anti-total eIF2α antibodies.
For this purpose, HEK293 cells were untreated or treated with 5, 10 or 20 μM GLB7 or MK-28. After 24 hours, the cells were lysed and the phosphorylated eIF2α levels were measured relatively to the total eIF2α (a substrate of PERK).

Compound | reduction of apoptosis (STHdhQ111/111 cells) | solubility (Solubility) [µM] | solubility compared to MK-28 (fold higher) (Solubility) [fold] | logD (Lipophilicity (logD7.4); pH 7.4) | lipophilicity compared to MK-28 (Lipophilicity (logD7.4); relative to MK-28) | increase in eIF2α phosphorylation relative to total eIF2α (PERK; 5 μM) [%] | increase in eIF2α phosphorylation relative to total eIF2α (PERK; 10 μM) [%] | increase in eIF2α phosphorylation relative to total eIF2α (PERK; 20 μM) [%] | PERK activation compared to MK-28 (PERK; lowest examined dose of 5 μM)
CN(NCc1ccc(O)c(O)c1)c1nc(-c2ccccc2)cc(-c2ccccc2)n1 [GLB11] | about 20% | 6 (≈ 2.39 µg/mL) | > 4 | 4.8 | – | – | – | – | –
Oc1ccc(C=NNc2nc(-c3ccccc3)cc(-c3ccccc3)n2)cc1O (racemic) [GLB7, 4-((2-(4,6-diphenylpyrimidin-2-yl)hydrazono)methyl)benzene-1,2-diol] | – | 16 (≈ 6.12 µg/mL) | > 10 | – | decreased | ~70 | 50 | 65 | higher levels of PERK activation
CN(/N=C/c1ccc(C(F)(F)F)cc1)c1nc(-c2ccccc2)cc(-c2ccccc2)n1 [GLC19, (E)-2-(1-methyl-2-(4-(trifluoromethyl)benzylidene) hydrazinyl)-4,6-diphenyl pyrimidine] | about 20% | – | – | – | – | – | – | – | –
